Like-named read-outs stand apart in the source and are kept apart here.
Legend:
human PRMT6 = target: T1, human PRMT6 (Homo sapiens, UniProt Q96LA8); experiment: PRMT6 Biochemical Assay (3H-SAM Flashplate, peptide substrate)
T1 construct: Flag-PRMT6-His; made in house; host or cells: HEK 293F cells (BacMam baculovirus)
Summary of the method: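 Flag-PRMT6-His, expressed in mammalian cells from a BacMam vector, was preincubated with compound for 30 min at room temperature in Bicine pH 7.6 buffer with TCEP, BSG and Tween 20. Reactions were started with ³H-SAM and a biotinylated histone H4 36-50 peptide, then stopped with cold SAM (400 uM final). Labeled peptide was captured on streptavidin Flashplates, counted, and fitted to a 3- or 4-parameter curve.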

human PRMT8 = human PRMT8 (Homo sapiens, UniProt Q9NR22); experiment: PRMT8 Biochemical Assay (3H-SAM Flashplate, peptide substrate); conditions: single experiment or average of multiple experiments
Summary of the method: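 E. coli-expressed human PRMT8 (GST removed) was preincubated with compound for 30 min at room temperature in 20 mM Bicine pH 7.6 with TCEP, BSG and Tween 20. 3H-SAM and a biotinylated H4 31-45 peptide were then added, and the reaction was stopped with cold SAM. Labelled peptide was captured on streptavidin Flashplates; % inhibition was calculated against DMSO and SAH controls and fitted to a 3- or 4-parameter curve.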

[1] = Biochemical IC50 PRMT6, single experiment or average of multiple experiments
[2] = single experiment or average of multiple experiments, read-out: Biochemical IC50 PRMT6

T1 sequence (Q96LA8 with tags, fused parts or gaps): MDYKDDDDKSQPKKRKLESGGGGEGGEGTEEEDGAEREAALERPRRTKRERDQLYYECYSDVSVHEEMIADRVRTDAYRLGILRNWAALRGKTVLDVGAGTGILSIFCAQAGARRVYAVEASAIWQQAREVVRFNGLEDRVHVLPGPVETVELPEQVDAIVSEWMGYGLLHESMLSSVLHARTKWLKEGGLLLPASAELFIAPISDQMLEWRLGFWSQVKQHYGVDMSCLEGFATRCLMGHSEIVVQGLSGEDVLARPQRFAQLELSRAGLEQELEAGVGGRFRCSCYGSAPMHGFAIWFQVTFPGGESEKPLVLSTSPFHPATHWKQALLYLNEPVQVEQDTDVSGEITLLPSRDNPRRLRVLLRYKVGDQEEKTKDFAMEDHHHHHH
Chain of human PRMT8 (Q9NR22 whole entry): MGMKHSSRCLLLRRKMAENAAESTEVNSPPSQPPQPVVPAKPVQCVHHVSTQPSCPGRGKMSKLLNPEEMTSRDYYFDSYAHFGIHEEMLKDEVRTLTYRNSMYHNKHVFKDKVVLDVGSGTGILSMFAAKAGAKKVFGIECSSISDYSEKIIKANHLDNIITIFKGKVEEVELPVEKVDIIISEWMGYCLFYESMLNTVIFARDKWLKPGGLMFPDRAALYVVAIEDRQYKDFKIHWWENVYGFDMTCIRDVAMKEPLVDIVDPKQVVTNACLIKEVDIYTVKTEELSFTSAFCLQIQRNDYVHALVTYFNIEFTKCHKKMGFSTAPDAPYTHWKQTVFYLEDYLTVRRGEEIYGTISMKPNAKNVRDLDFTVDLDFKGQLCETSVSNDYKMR

| IC50 (human PRMT6; [1]) [nM] | IC50 (human PRMT8) [nM] | SMILES | IC50 (human PRMT6; [2]) [nM] |
| --- | --- | --- | --- |
| 52.8 | 710 | CN(CCN)Cc1nn(C)cc1-c1ccc(C#N)cc1 [Compound 83] |  |
| 62.9 | 3730 | CN(CCN)Cc1c[nH]nc1-c1ccccc1F [Compound 72] |  |
| 8.02 | 198 | CN(CCN)Cc1c[nH]nc1-c1ccc(OC(F)F)cc1 [Compound 94] |  |
| 5.61 | 207 | CN(CCN)Cc1c[nH]nc1-c1ccc(Cl)cc1 [Compound 95] |  |
| 66.5 | 1490 | NCCN(Cc1c[nH]nc1-c1ccc(F)cc1)C1CC1 [Compound 78] |  |
| 44.1 | 2170 | CNCCN(C)Cc1c[nH]nc1-c1ccccc1F [Compound 48] |  |
| 10.2 | 1380 | Cc1ccc(-c2n[nH]cc2CN(C)CCN)c(Cl)c1 [Compound 90] |  |
| 37.8 | 596 | CNCCN(C)Cc1c[nH]nc1-c1cccc(OC(F)(F)F)c1 [Compound 39] |  |
| 105 | 3450 | CN(CCN)Cc1cnn(C2COC2)c1-c1ccc(F)cc1 [Compound 81] |  |
| 6.45 | 152 | CN(CCN)Cc1c[nH]nc1-c1ccc(C(F)(F)F)cc1 [Compound 92] |  |
|  | 693 | CNCCN(C)Cc1cnn(C)c1-c1ccc(F)cc1 [Compound 10] |  |
| 1640 | 2510 | CC(C)N(CCN)Cc1c[nH]nc1-c1ccc(F)cc1 [Compound 75] |  |
| 11 |  | CC(C)Oc1ccc(-c2n[nH]cc2CN(C)CCN)cc1Cl [Compound 168] |  |
| 29 | 1890 | Cc1ccc(-c2n[nH]cc2CN(C)CCN)c(C)c1 [Compound 88] |  |
| 18.9 | 2490 | CN(CCN)Cc1c[nH]nc1-c1cccc(C#N)c1 [Compound 70] |  |
| 34.2 | 2040 | CN(CCN)Cc1n[nH]cc1-c1ccc(F)cc1 [Compound 69] |  |
| 10.7 | 76.1 | CN(CCN)Cc1c[nH]nc1-c1ccc(OC(F)(F)F)cc1 [Compound 93] |  |
| 27 | 960 | CN(CCN)Cc1cn(C)nc1-c1ccc(F)cc1 [Compound 3] |  |
| 8.16 | 347 | CN(CCN)Cc1c[nH]nc1-c1cccc(F)c1 [Compound 71] |  |
| 25.9 | 959 | CN(CCN)Cc1c[nH]nc1-c1ccccc1 [Compound 73] |  |
| 37.8 | 185 | CN(CCN)Cc1c[nH]nc1-c1ccc(C(C)(C)C)cc1 [Compound 74] |  |
|  | 396 | CCN(CCNC)Cc1c[nH]nc1-c1ccc(F)cc1 [Compound 9] |  |
|  |  | CN(CCN)Cc1c[nH]nc1-c1ccc(F)cc1 [Compound 1] | 11 |
| 13.5 | 1730 | CN(CCN)Cc1c[nH]nc1-c1ccc(F)cc1Cl [Compound 89] |  |
| 103 | 3110 | COc1ccc(-c2n[nH]cc2CN(C)CCN)c(OC)c1 [Compound 87] |  |
| 129 | 2470 | CN(CCN)Cc1c[nH]nc1-c1ccc(N2CCNCC2)cc1 [Compound 82] |  |
| 467 | 4200 | COCCn1cc(CN(C)CCN)c(-c2ccc(F)cc2)n1 [Compound 5] |  |
| 237 | 6900 | Cc1ccc(Cl)c(-c2n[nH]cc2CN(C)CCN)c1 [Compound 91] |  |
| 9.16 | 740 | CN(CCN)Cc1c[nH]nc1-c1ccc(Cl)cc1Cl [Compound 86] |  |
| 191 |  | CNCCN(C)Cc1cnn(CC2CCOCC2)c1-c1ccc(F)cc1 [Compound 12] |  |

| SMILES | IC50 (human PRMT6; [1]) [nM] | IC50 (human PRMT8) [nM] | IC50 (human PRMT6; [2]) [nM] |
| --- | --- | --- | --- |
| CNCCN(C)Cc1c[nH]nc1-c1ccccc1NS(C)(=O)=O [Compound 41] |  | 40000 | 8140 |
| CNCCN(C)Cc1c[nH]nc1-c1cccc(N)c1 [Compound 32] |  | 1530 | 22.2 |
| CN(CCN)Cc1c[nH]nc1-c1ccc(C(F)(F)F)cc1C(F)(F)F [Compound 85] | 701 | 4260 |  |
| CN(CCN)Cc1cn(C2COC2)nc1-c1ccc(F)cc1 [Compound 77] | 101 | 1660 |  |
| CNCCN(C)Cc1c[nH]nc1-c1cccc(C(C)=O)c1 [Compound 44] |  | 522 | 39.4 |
| CNCCN(C)Cc1c[nH]nc1-c1ccc(-c2ccccc2)cc1 [Compound 47] |  | 90.8 | 4.76 |
| CNCCN(C)Cc1c[nH]nc1-c1ccc(CC#N)cc1 [Compound 34] |  | 773 | 11.3 |
| CN(CCN)Cc1cnn(C)c1-c1ccc(F)cc1 [Compound 4] | 76.1 | 2430 |  |
| CNCCN(C)Cc1c[nH]nc1-c1ccccc1O [Compound 35] |  | 24800 | 457 |
| CNCCN(C)Cc1c[nH]nc1-c1cccc(NC(C)=O)c1 [Compound 42] |  | 1540 | 47.6 |

Source: patent US9776972B2, “Pyrazole derivatives as arginine methyltransferase inhibitors and uses thereof” (priority 2013, dated 2017)
